Reference: US20220119446A1, “BIOMARKERS AND TREATMENT OF NEURONAL INJURY AND NEURODEGENERATION” (Board of Supervisons of Louisiana State University and …, priority 2018, published 2022)
Entries after “also recorded” stand apart in the source; their conditions may differ. * marks the point of attachment. Boc = CC(C)(C)OC(=O)*

Columns and labels:
Format in all cases: cell-based, human
FZD5 [1] = experiment: Western blot of FZD5 protein in hpRPE cells under UOS
Description: The pellet was re-suspended and denatured in 100 μl of 2× Laemmli sample buffer (Bio-Rad Laboratories) at 95° C. for 5 min. MCAo brain tissue and cell samples were homogenized using RIPA (Thermo Fisher Scientific) buffer supplemented with protease and phosphatase inhibitor cocktails (Sigma). The amount of 30 μg of total protein was loaded in NuPAGE® Novex® 4-12% Bis-Tris precast gels (Life Technologies Corporation) or Mini-PROTEAN TGX Stain free gels 4-15% and ran at constant 120V for 1 hour and 20 min or 250 V for 40 min respectively. Proteins were transferred to μm Nitrocellulose or LF-PVDF membrane using Bio-Rad Trans-Blot® Turbo™ System (Bio-Rad Laboratories). ECL™ Plex Fluorescent Rainbow Markers (GE Healthcare) were used as the ladder for protein's molecular weight. Membranes were blocked using 5% non-fat dry milk (Bio-Rad Laboratories) in TBS with 1% Tween® 20 (TBST-10X) for 1 hour and incubated overnight with primary antibodies. Anti-mouse or anti-rabbit secondary antibodies conjugated with Cy3 or Cy5 were used to visualize the protein of interest. Immunoblots were documented using LAS 4000 imaging system (GE Healthcare Life Sciences) or ChemiDoc MP Imaging System (BioRad Laboratories). A time course exposition was produced in each case to prevent quantification of saturated images. Densitometry data was obtained using ImageQuant™ TL software and XRS Blot Chemi Software (BioRad Laboratories).

FZD5 [2] = experiment: SYBR green real-time PCR of Wnt5a receptors/co-receptors in RPE cells under UOS
Description: Cell samples, total RNA was extracted by RNeasy Mini Kit (QIAGEN) following manufacturer's protocol. The purity and concentration of RNA were determined by NanoDrop ND-1000 Spectrophotometer (Thermo Fisher Scientific). cDNA first strand was obtained from one microgram of total RNA using iScript™ Reverse Transcription Supermix (Bio-Rad Laboratories, CA, USA). The resulting cDNA was used as template SYBR-green or Eva-green based real-time PCR quantification using SsoAdvance Universal Supermix (Bio-Rad Laboratories). Data was collected and analyzed using CFX Manager 3.0 software, the ΔΔCt method. Melting curve was produced for every run to assure a unique amplified product per primer set.

COX-2 promoter = COX-2 promoter luciferase reporter assay; settings: for COX-2 promoter activity (luciferase): hRPE cells, +/− 100 nM and 200 nM NPD1
Excerpt: (§1) Except TOP/FOP flash, the Luciferase activity can be standardized using a construct expressing GFP constitutively under CMV virus promoter. To assess luciferase activity, cell lysates can be obtained using Passive Lysis Buffer (Promega, Madison, Wis.) and mixed with a luciferase assay reagent (Promegam Madison, Wis.). Chemiluminescence produced by luciferase and fluorescence from GFP can be detected using Appliscan 2.3. Data can be analyzed using SkanIt 2.3 (Thermo Fisher Scientific, Waltham, Mass.).
A, Design of luciferase reporter assay performed with COX-2 promoter construct. UOS was induced by the addition of 10 ng/ml TNFα and 600 μM H2O2 in ARPE-19 cells. The concentrations of Wnt5a used was 50 ng/ml. Cells were co-transfected with the constructs driving the expression of luciferase and a plasmid that constitutively expressed green fluorescent protein for standardization. Luciferase activity is denoted in luciferase activity units (LUC) and standardized using GFP fluorescent (GFP). B, Wnt5a and IL-1β effect time course on COX-2 promoter activity. […] Luciferase activity (LUC) was measured in ARPE-19 cells in the presence of 50 ng/ml Wnt5a or 20 ng/ml IL1-β. […] Luciferase activity measured in cells incubated with 50 ng/ml Wnt5a in the presence or absence of 100 nM (+) and 200 nM (++) NPD1.

NF-κB/p65 = NF-κB/p65 luciferase reporter assay in hpRPE cells
Description: We asked if Wnt5a activates inflammatory signaling to enhance apoptosis mediated by UOS by assessing COX-2 promoter activation (FIG. 10). […] To compare Wnt5a effects with other cytokines that enhance COX-2 expression, Interleukin-1β (IL-1β) activity was measured. […] To determine if Wnt5a activates NF-κB, hpRPE were transfected with a construct that encompassed three p65 high-affinity binding sites in tandem, driving the expression of the luciferase reporter gene (FIG. 1G). […] To assess whether or not FDZ5 and ROR2 were involved in NF-κB activation by Wnt5a, cells were co-transfected with siRNAs targeting the two receptors (FIG. 11).
as §1
(§2) Except TOP/FOP flash, the Luciferase activity was standardized using a construct expressing GFP constitutively under CMV virus promoter. To assess luciferase activity, cell lysates were obtained using Passive Lysis Buffer (Promega) and mixed with a luciferase assay reagent (Promega). Chemiluminescence produced by luciferase and fluorescence from GFP was detected using Appliscan 2.3. Data were analyzed using SkanIt 2.3 (Thermo Fisher Scientific).

β-catenin = experiment: TOP Flash/FOP flash luciferase reporter in hpRPE cells; settings: hpRPE cells undergoing UOS+/−NPD1
Excerpt: We tested whether or not Wnt5a activates […] using TOP Flash/FOP flash reporter system in hpRPE cells undergoing UOS+/−NPD1 (FIG. 1g).
as §1, §2

[3] = hpRPE under UOS in the presence of Wnt5a 50 ng/ml, NPD1 100 or 200 nM, Pitstop2 25 μM

time of peak COX-2 promoter activity after addition (COX-2 promoter; ARPE-19 cells, 50 ng/ml Wnt5a) [h] | COX-2 promoter activation (luciferase) (COX-2 promoter; ARPE-19 cells, 50 ng/ml Wnt5a or 20 ng/ml IL1-β) | Molecule | FZD5 protein abundance (FZD5 [1]; Box5, even in the presence of Wnt5a 50 ng/ml) | FZD5 expression (FZD5 [2]; ARPE-19 cells, UOS gives 3-fold increase (FIG. 1F)) | FZD5 mRNA (FZD5 [2]; hpRPE exposed to UOS, UOS gives 2-fold rise) | ROR1 expression (FZD5 [2]; reduced under UOS) | COX-2 promoter activity (luciferase) (COX-2 promoter; 50 ng/ml Wnt5a) | NF-κB/p65 activation (luciferase) (NF-κB/p65; [3]) | NF-κB activation in cells co-transfected with ROR2 and FZD5 siRNAs (NF-κB/p65; hpRPE under UOS, double knockdown) | NF-κB/p65 activation (luciferase) (NF-κB/p65; hpRPE under UOS, no Wnt5a added) | β-catenin activity (luciferase) (β-catenin) | FZD5 protein abundance (FZD5 [1]; 100 nM NPD1, Wnt5a present) | FZD5 protein abundance (FZD5 [1]; 100 nM NPD1, absence of Wnt5a)
– | – | t-Boc-NH-Met-Asp-Gly-Cys-Glu-Leu-CO2H (Boc-MDGCEL-OH) [Box5] | decreased FZD5 abundance by half of the level | – | – | – | – | – | – | – | – | – | –
– | – | CC/C=C\C[C@H](O)\C=C/C=C/C=C/[C@H](O)C/C=C\C/C=C\CCC(=O)O [NPD1, 10R,17S-dihydroxy-docosa-4Z,7Z,11E,13E,15Z,19Z-hexaenoic acid] | – | counteracted this effect | downregulated | re-established | down by half; also recorded: prevents Wnt5a-induced activation of COX-2 promoter | reduced luciferase activity; also recorded: affects its activation when Wnt5a is added | not affected | did not affect NF-κB/p65; also recorded: does not prevent activation of NF-κB triggered by UOS; also recorded: did not affect NFkB/p65 | not significantly altered | steep decrease in the receptor content | no differences in the FZD5 receptor were observed
4 | induced COX-2 promoter activation | Wnt5a: Recombinant Human/Mouse Wnt-5a Protein, CHO-derived (Gln38-Lys380), R&D systems 645-WN (protein) QVVIEANSWWSLGMNNPVQMSEVYIIGAQPLCSQLAGLSQGQKKLCHLYQDHMQYIGEGAKTGIKECQYQFRHRRWNCSTVDNTSVFGRVMQIGSRETAFTYAVSAAGVVNAMSRACREGELSTCGCSRAARPKDLPRDWLWGGCGDNIDYGYRFAKEFVDARERERIHAKGSYESARILMNLHNNEAGRRTVYNLADVACKCHGVSGSCSLKTCWLQLADFRKVGDALKEKYDSAAAMRLNSRGKLVQVNSRFNSPTTQDLVYIDPSPDYCVRNESTGSLGTQGRLCNKTSEGMDGCELMCCGRGYDQFKTVQTERCHCKFHWCCYVKCKKCTEIVDQFVCK | – | – | – | – | increased COX-2 activation | heightens NF-κB activation; also recorded: heightened NFkB activation | – | – | did not affect β-catenin; also recorded: does not affect activation of β-catenin | – | –
